Earlier results, collected in patent US20250190808A1, “DEVICE AND METHOD FOR IM[…] TR[…] NETWORK FOR T[…] SEQUENCE, AND TRAINING DEVICE AND METHOD USING SAME” (LG MANAGEMENT DEVELOPMENT INSTITUTE CO., LTD., priority 2022, published 2025).
Like-named read-outs stand apart in the source and are kept apart here.

Tests used:
MHC TYPE A*0101 = conditions: read-out: MHC BINDING (IC50)
MHC TYPE A*0204 = conditions: read-out: MHC BINDING (IC50)
MHC TYPE A*0201 = MHC TYPE A*0201 (Homo sapiens, UniProt P04439, D140Y/D185E/D98H/E176V/E277Q/G131W/G231S/I119V/I121R/I166T/I218V/L300P/L318F/N151K/N90K/P208A/P217A/Q86G/Q94H/R138H/R169H/T345S); conditions: read-out: MHC BINDING (IC50)
MHC TYPE B*0101 = conditions: read-out: MHC BINDING (IC50)

In the case of GQIVTMFEA, the “ACTIVATION OF T-CELL” value (T-cell; MHC type A*0101) is listed as “Negative” and the IC50 (MHC TYPE A*0101) is listed as < 0.1 µM.
In the case of MFEALPHII, the IC50 (MHC TYPE A*0204) is listed as 12 µM.
For MGQIVTMFE, the “ACTIVATION OF T-CELL” value (T-cell; MHC type A*0201) is given as “Positive”, the IC50 (MHC TYPE A*0201) is given as 0.021 µM and the IC50 (MHC TYPE B*0101) is given as > 20 µM.
